Series [1] has as its target T1, alpha-1A adrenoceptors (Homo sapiens, UniProt P35348).
T1 sequence (P35348 1-466): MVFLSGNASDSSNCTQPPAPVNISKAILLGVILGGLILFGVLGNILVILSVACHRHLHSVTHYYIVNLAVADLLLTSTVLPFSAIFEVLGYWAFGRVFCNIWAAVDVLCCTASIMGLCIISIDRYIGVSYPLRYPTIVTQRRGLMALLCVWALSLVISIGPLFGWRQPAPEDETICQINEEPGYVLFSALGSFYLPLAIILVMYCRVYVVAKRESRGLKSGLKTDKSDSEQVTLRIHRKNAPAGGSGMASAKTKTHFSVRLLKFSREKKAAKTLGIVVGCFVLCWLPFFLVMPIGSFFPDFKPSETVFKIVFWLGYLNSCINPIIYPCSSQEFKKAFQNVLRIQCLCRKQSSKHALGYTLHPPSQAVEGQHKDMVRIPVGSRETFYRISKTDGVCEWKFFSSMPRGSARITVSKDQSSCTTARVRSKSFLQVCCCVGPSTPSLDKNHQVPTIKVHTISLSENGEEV
The series is described as follows: alpha-1A adrenoceptor partial agonist activity (intrinsic activity and pEC50). Type of series: biochemical.

For series [2], the system named is Female Yucatan Micro-Swine. Description: Conscious pig model (IUP, MAP, HR). Type of series: in vivo. Here is the method:
In general, IUP is the intraurethral pressure and is measured as the 2 minute mean from the first peak of the urethral response (FIG. 1). MAP is the mean arterial blood pressure and is measured as the average blood pressure during the 2 minute section where IUP is measured. The durability is the slope of the IUP response in mmHg/min and is calculated immediately after the 2 minute IUP response for 5 minutes (2-7 minutes post the first peak) for the top 3 doses.
Conscious Pig Materials and Methods
Sling Training: Female Yucatan Micro-Swine were trained to stay in a sling for up to 4 hours. Swine were exposed to progressively longer sling durations per IACUC sling-training guideline.
Surgical Instrumentation: Female Yucatan Micro-swine were instrumented with a telemetry device with both pressure and ECG monitoring capabilities (Data Sciences International St Paul Minn.). In addition, a Bardport low profile titanium VAP was placed subcutaneously for blood sampling. All devices were implanted by the surgical veterinarian at Roche Palo Alto. Briefly, the telemetry probe body was placed subcutaneously in the cervical region. The intra-arterial pressure catheter was advanced via the superficial cervical artery into the subclavian artery for blood pressure measurement. The ECG leads were placed intra-muscularly: one in the intercostal muscle between the T8-T10 regions on the left side, and the other in the intercostal muscles between the T1-T3 regions on the right side. The VAP was placed subcutaneously in the neck region, with the catheter advanced into the jugular vein. […]
Experiment: After the swine was fully awake and stable (usually approximately 1 hour post wake up), baseline blood pressure, IUP, and heart rate parameters were determined. […]
Data Generating and Analysis Systems: Cardiovascular readings were generated by the TL11M3-D70-PCP (Data Sciences International, St. Paul, Minn.) telemetry device and associated hardware. […] IUP was monitored by a solid state catheter connected to a TA6000 Polygraph (Data Sciences International, St. Paul, Minn.). […]

Each structure is given as a SMILES string.

Take `CS(=O)(=O)Nc1cc(F)c(CC2=NCCN2)c(Br)c1Br` [Formula I, N-[2,3-Dibromo-4-(4,5-dihydro-1H-imidazol-2-ylmethyl)-5-fluoro-phenyl]-methanesulfonamide]: the “intrinsic activity, or efficacy, as a partial agonist” value in series [1] (ideally between 0.35 to 0.60) was 0.38. In addition, in series [1] (read-out: affinity, or pEC50 value (converted)), the EC50 was 200 nM. Besides, in series [2], the “maximum arterial blood pressure effect” value is listed as “low maximum arterial blood pressure effect” and the “selectivity for enhancement of intraurethral pressure (IUP) over blood pressure (MAP)” value is on record as “selectivity for enhancement of intraurethral pressure (IUP) over blood pressure (MAP)”. Besides, in series [2] (iv infusion, compared to analogue compound (FIG. 1b vs FIG. 1c)), the “durability of IUP response over time” value is “unexpectedly increased durability of IUP response over time”.

For the origin of these results see patent US7799816B2, “Imidazolinylmethyl aryl sulfonamide” (Roche Palo Alto LLC, priority 2008, dated 2010).
